How the values were obtained:
[1] = tested on: barnyardgrass; assay: Test A pre-/postemergence herbicide test; format: in vivo, Echinochloa crus-galli
Outline: (§1)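 Pre: seeded sandy loam, directed soil spray, compound in non-phytotoxic solvent + surfactant. Post: 1–2-leaf plants (2–10 cm), sprayed to runoff. Greenhouse ~10 d; visual injury vs untreated, 0–100 scale.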

[2] = tested on: morningglory; assay: Test A pre-/postemergence herbicide test; format: in vivo, Ipomoea spp.
Outline: as §1

[3] = tested on: large crabgrass; assay: Test B pre-/postemergence herbicide test; format: in vivo, Digitaria sanguinalis
Outline: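 Visual rating, 0 (no effect) to 100 (complete control), versus untreated controls after 13–15 d in greenhouse. Pre- and postemergence applications (postemergence plants 2–18 cm, 1–4 leaves); flooded paddy arm at 2-leaf stage. Compounds in non-phytotoxic solvent plus surfactant.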

[4] = tested on: barnyardgrass; assay: Test B pre-/postemergence herbicide test; format: in vivo, Echinochloa crus-galli
Outline: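 Test chemicals in a non-phytotoxic solvent mixture with surfactant were applied preemergence to seeded species and postemergence to plants 2-18 cm tall (1- to 4-leaf stage); rice and barnyardgrass were also tested in a flooded paddy at the 2-leaf stage. Visual rating versus controls after 13-15 days in greenhouse, scale 0 (no effect) to 100 (complete control).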

[5] = Postemergence, 125 g ai/ha, 0 to 100 scale, 0 no effect, 100 complete control
[6] = Postemergence, 500 g ai/ha, 0 to 100 scale, 0 no effect, 100 complete control
[7] = Preemergence, 500 g ai/ha, visual rating, 0 to 100 scale (0 no effect, 100 complete control)
[8] = preemergence, 125 g ai/ha, visual injury, 0 to 100 scale (0 no effect, 100 complete control)
[9] = Postemergence, 500 g ai/ha, visual rating after 13 to 15 days, scale 0 (no effect) to 100 (complete control)
[10] = Preemergence, 500 g ai/ha, scale 0 to 100
[11] = postemergence, 125 g ai/ha, visual rating, scale 0 (no effect) to 100 (complete control)
[12] = preemergence, 125 g ai/ha, 0 to 100 scale, 0 is no effect, 100 is complete control
[13] = Postemergence, 2000 g ai/ha, 0 to 100 scale, 0 no effect, 100 complete control
[14] = Preemergence, 2000 g ai/ha, visual rating, 0 to 100 scale (0 no effect, 100 complete control)
[15] = preemergence, 500 g ai/ha, visual injury, 0 to 100 scale (0 no effect, 100 complete control)
[16] = 125 g ai/ha, 0 = no effect, 100 = complete control, preemergence
[17] = 500 g ai/ha, visual rating, 0 = no effect, 100 = complete control, preemergence
[18] = postemergence, 500 g ai/ha, visual rating, scale 0 (no effect) to 100 (complete control)
[19] = Preemergence, 2000 g ai/ha, 0 to 100 scale, 0 no effect, 100 complete control
[20] = Postemergence, 125 g ai/ha, scale 0 (no effect) to 100 (complete control)
[21] = 500 g ai/ha, visual rating 0-100, 0 no effect, 100 complete control, preemergence
[22] = postemergence, 500 g ai/ha, scale 0 to 100, 0 is no effect, 100 is complete control

| Structure (SMILES) | Plant response rating, Barnyardgrass [1, 6] | Barnyardgrass plant response rating [1, 7] | Plant response rating, Morningglory [2, 6] | Morningglory plant response rating [2, 7] | Plant response rating, Crabgrass, Large [3, 9] | Crabgrass, Large plant response rating [3, 10] | Crabgrass, Large plant response rating [3, 11] | Plant response rating, Barnyardgrass [4, 9] | Barnyardgrass plant response rating [4, 10] | Barnyardgrass plant response rating [4, 11] | Barnyardgrass plant response rating [1, 6] | Plant response rating, Barnyardgrass [1, 13] | Barnyardgrass plant response rating [1, 14] | Barnyardgrass plant response rating [1, 15] | Morningglory plant response rating [2, 6] | Plant response rating, Morningglory [2, 13] | Morningglory plant response rating [2, 14] | Morningglory plant response rating [2, 15] | Crabgrass, Large plant response rating (0 to 100 scale) [3, 16] | Barnyardgrass plant response rating (0 to 100 scale) [4, 16] | other results |
| --- | --- | --- | --- | --- | --- | --- | --- | --- | --- | --- | --- | --- | --- | --- | --- | --- | --- | --- | --- | --- | --- |
| CCn1nc(C(C)(C)C)cc1C(=O)Nc1cccc(C(=O)NC(C)C)c1 [Compound 51] | 75 | 85 | 35 | 15 | 50 | 100 | 20 | 80 | 100 | 60 |  |  |  |  |  |  |  |  |  |  | Barnyardgrass plant response rating [1, 5]: 50; Barnyardgrass plant response rating [1, 8]: 60; Morningglory plant response rating [2, 5]: 10; Morningglory plant response rating [2, 8]: 10; Plant response rating, Crabgrass, Large [3, 12]: 90; Plant response rating, Barnyardgrass [4, 12]: 80 |
| CCc1nc(C(C)(C)C)sc1C(=O)Nc1cccc(C(=O)NC(C)(C)C)n1 [Compound 216] |  |  |  |  |  |  | 0 |  |  | 0 | 0 | 15 | 35 | 15 | 20 | 20 | 15 | 0 | 0 | 0 | Plant response rating, Crabgrass, Large [3, 17]: 40; Crabgrass, Large plant response rating [3, 18]: 0; Plant response rating, Barnyardgrass [4, 17]: 40; Barnyardgrass plant response rating [4, 18]: 10 |
| CCn1nc(C(C)(C)C)cc1C(=O)Nc1cccc(C(=O)NCCF)c1 [Compound 45] | 100 | 80 | 25 | 15 | 30 | 90 |  | 30 | 100 |  |  | 100 |  |  |  | 25 |  |  |  |  | Barnyardgrass plant response rating [1, 19]: 95; Morningglory plant response rating [2, 19]: 75; Crabgrass, Large plant response rating [3, 20]: 30; Barnyardgrass plant response rating [4, 20]: 20 |
| CCc1nc(C(C)(C)C)sc1C(=O)Nc1cccc(C(=O)NCCF)c1 [Compound 209] |  |  |  |  |  |  | 20 |  |  | 10 | 30 | 70 | 80 | 60 | 0 | 15 | 40 | 20 | 40 | 50 | Plant response rating, Crabgrass, Large [3, 21]: 60; Crabgrass, Large plant response rating [3, 18]: 20; Plant response rating, Barnyardgrass [4, 21]: 90; Barnyardgrass plant response rating [4, 18]: 20 |
| CCNC(=O)c1ccc(F)c(NC(=O)c2cc(C(C)(C)C)nn2CC)n1 [Compound 278] |  |  |  |  |  |  | 0 |  |  | 0 | 30 | 60 | 80 | 50 | 10 | 5 | 25 | 10 | 20 | 30 | Plant response rating, Crabgrass, Large [3, 17]: 80; Crabgrass, Large plant response rating [3, 22]: 10; Plant response rating, Barnyardgrass [4, 17]: 80; Barnyardgrass plant response rating [4, 22]: 10 |

— patent US20060069132A1, “Azolecarboxamide herbicides” (priority 2004, published 2006)
